{"source": "patent US20050245559A1", "about": "“Treatment and prevention of prostate cancer” (priority 2004, published 2005)", "key": {"[1]": {"tested_on": "PC3 prostate cancer cells", "experiment": "clonogenic activity of PC3 prostate cancer cells", "assay_type": "cell-based", "conditions": "dose dependent, FIG. 5"}, "[2]": {"tested_on": "prostate cancer cells", "experiment": "morphology of cellular organelles of prostate cancer cells", "assay_type": "cell-based", "conditions": "about 10 μM and 20 μM tetrandrine"}, "[3]": {"tested_on": "LNCaP cells", "experiment": "growth and proliferation of LNCaP cells stimulated by fetal calf serum (FCS)", "assay_type": "cell-based"}, "[4]": {"conditions": "doses of from 100 mg/day to 300 mg/day, prior studies; cited from earlier work"}, "[5]": {"tested_on": "Caspase-7", "experiment": "Caspase-7 activation", "assay_type": "cell-based", "conditions": "FIG. 6"}, "[6]": {"tested_on": "Caspase-3", "experiment": "Caspase-3 activation", "assay_type": "cell-based", "conditions": "FIG. 6"}, "[7]": {"tested_on": "Caspase-9", "experiment": "Caspase-9 activation", "assay_type": "cell-based", "conditions": "FIG. 6"}, "[8]": {"tested_on": "prostate specific antigen (PSA)", "experiment": "DHT-stimulated prostate specific antigen (PSA) expression in LNCaP cells", "assay_type": "cell-based"}, "[9]": {"tested_on": "calcium channel", "conditions": "cited from earlier work"}, "[10]": {"tested_on": "Bcl-XL", "experiment": "Bcl-XL down-regulation in prostate cancer cells", "assay_type": "cell-based", "conditions": "FIG. 9"}, "[11]": {"tested_on": "Caspase-8", "experiment": "Caspase-8 activation", "assay_type": "cell-based", "conditions": "FIG. 6"}, "[12]": {"tested_on": "LNCaP prostate cancer cells", "experiment": "flow cytometry of apoptosis and necrosis in LNCaP cells", "assay_type": "cell-based", "conditions": "24 hours or 48 hours exposure", "from_the_text": "(§1) The increasing apoptosis and necrosis in hormone-independent and hormone dependent prostate cancer cells after exposure to tetrandrine occurs in a dose- and time-dependent manner."}, "[13]": {"tested_on": "LNCaP cells", "experiment": "dose response of LNCaP growth and proliferation, optical density of stained live cells", "assay_type": "cell-based"}, "[14]": {"tested_on": "PARP", "experiment": "PARP cleavage", "assay_type": "cell-based", "conditions": "FIG. 7"}, "[15]": {"tested_on": "prostate cancer cells", "experiment": "cell cycle effect in prostate cancer cells", "assay_type": "cell-based", "conditions": "stated as apparent mechanism", "from_the_text": "as §1"}, "[16]": {"tested_on": "PC3 prostate cancer cells", "experiment": "killing of hormone-independent PC3 prostate cancer cells", "assay_type": "cell-based", "conditions": "increasing concentrations, 96 hours of exposure; FIG. 4"}, "[17]": {"tested_on": "cytochrome-C", "experiment": "mitochondrial cytochrome C release", "assay_type": "cell-based", "conditions": "FIG. 8"}, "[18]": {"tested_on": "LNCaP cells", "experiment": "growth and proliferation of LNCaP cells stimulated by dihydrotestosterone (DHT)", "assay_type": "cell-based", "protocol": "Tetrandrine inhibits the growth and proliferation of prostate cancer cells in a dose- and time-dependent manner. For example, the growth and proliferation of LNCaP cells stimulated by dihydrotestosterone (DHT) and fetal calf serum (FCS) can be stopped or inhibited and, at higher concentrations or at longer exposure times, the cells are killed. Preferably, the concentration of tetrandrine used is between about 10 μM and about 60 μM. […] The cells take on an atrophied appearance after contact with tetrandrine."}}, "data": [{"smiles": "COc1ccc2cc1Oc1ccc(cc1)CC1c3cc(c(OC)cc3CCN1C)Oc1c(OC)c(OC)cc3c1C(C2)N(C)CC3", "note": "(centres unmarked) [tetrandrine, (1B)-6,6′,7,12-tetramethoxy-2,2′-dimethyl-berbaman]", "values": [{"measurement": "clonogenic activity of PC3 cells", "setting": "[1]", "value": "inhibition of the clonogenic activity"}, {"measurement": "clonogenic activity of PC3 cells", "setting": "[1]; listed as Tetrandrine", "value": "inhibits the clonogenic activity"}, {"measurement": "morphology of nuclei and cytoskeleton", "setting": "[2]", "value": "nuclei of prostate cancer cells appear to shrink and round while the cytoskeleton is disrupted"}, {"measurement": "cell number and morphology of LNCaP cells growing under FCS", "setting": "[3]; 10 μM tetrandrine, FIG. 2A", "value": "decrease in cell number and the notable change in cell morphology"}, {"measurement": "cell number and morphology of LNCaP cells growing under FCS", "setting": "[3]; 20 μM tetrandrine, FIG. 2A", "value": "the decrease in cell number and the change in cell morphology is even more apparent"}, {"measurement": "growth and proliferation of LNCaP cells stimulated by FCS", "setting": "[3]; about 10 μM to about 60 μM tetrandrine, FIG. 1B", "value": "inhibition of the growth and proliferation"}, {"measurement": "cell number and morphology of LNCaP cells growing under FCS", "setting": "[3]; concentration not given", "value": "sharp decrease in cell number and a significant change in cell morphology"}, {"measurement": "toxicity", "setting": "[4]", "value": "minimal toxicity"}, {"measurement": "Caspase-7 activation", "setting": "[5]", "value": "concentration-dependent increase"}, {"measurement": "Caspase-3 activation", "setting": "[6]", "value": "concentration-dependent increase"}, {"measurement": "Caspase-9 activation", "setting": "[7]", "value": "concentration-dependent increase"}, {"measurement": "DHT-stimulated PSA expression", "setting": "[8]", "value": "inhibits DHT-stimulated prostate specific antigen (PSA) expression in a dose-dependent manner"}, {"measurement": "calcium channel blocker activity", "setting": "[9]", "value": "minimal"}, {"measurement": "Bcl-XL level in prostate cancer cells", "setting": "[10]", "value": "concentration-dependent down-regulation"}, {"measurement": "Caspase-8 activation", "setting": "[11]", "value": "concentration-dependent increase"}, {"measurement": "apoptosis and necrosis by flow cytometry", "setting": "[12]", "value": "increasing apoptosis and necrosis in a dose- and time-dependent manner"}, {"measurement": "death of LNCaP cells at longer exposure", "setting": "[13]; 48 hours and 72 hours versus 24 hours, each concentration", "value": "death of LNCaP cells is greater"}, {"measurement": "growth of LNCaP cells, stained live cells", "setting": "[13]; about 5 μM tetrandrine, 24 hours", "value": "growth of LNCaP cells is inhibited"}, {"measurement": "killing of LNCaP cells, stained live cells", "setting": "[13]; about 60 μM tetrandrine, 24 hours", "value": "almost all LNCAP cells are killed"}, {"measurement": "PARP cleavage", "setting": "[14]", "value": "concentration-dependent increase"}, {"measurement": "mechanism of decreased proliferation / increased apoptosis (cell cycle)", "setting": "[15]", "value": "cell cycle arrest in G1"}, {"measurement": "killing of hormone-independent PC3 cells", "setting": "[16]", "value": "dose-dependent killing"}, {"measurement": "cytoplasmic cytochrome-C", "setting": "[17]", "value": "concentration-dependent increase"}, {"measurement": "mitochondrial cytochrome-C", "setting": "[17]", "value": "concentration-dependent decrease"}, {"measurement": "cell number and morphology of LNCaP cells in presence of FCS and DHT", "setting": "[18]; about 10 μM to about 20 μM tetrandrine, FIG. 2B", "value": "decrease in cell number and atrophied appearance"}, {"measurement": "growth and proliferation of LNCaP cells stimulated by DHT", "setting": "[18]; about 10 μM to about 60 μM tetrandrine, FIG. 1A", "value": "inhibition of the growth and proliferation"}]}]}
